From patent US20260007634A1, “PHARMACEUTICAL COMPOSITIONS FOR THE TREATMENT OF ALLERGIC DISEASES” (KINKI UNIVERSITY, priority 2022, published 2026)

Tests used:
[1] = test system: Th1 cells; test: Th1 cell activation in inflammation-induced mouse model (IFNγ flow cytometry); assay type: in vivo; settings: DBA/1J mice, Freund's complete adjuvant + bovine type2 collagen; oral 10 mg/kg daily 20 days; thymus cells; vs vehicle group
Procedure: (§1) Equal volume mixtures of Freund's complete adjuvant and Bovine type2 collagen were administered to 6-week-old male DBA/1J mice (Japan SLC Inc.) at 0.1 mL (day 0 of the study). 21 days later, DBA/1J mice were again injected with 0.1 mL of the above mixture for secondary immunization. After the second immunization, mice were orally treated with 10 mg/kg of mangiferin 8a and 10 mg/kg of norathyriol daily for 20 days. 20 days later, thymus glands were harvested from mice and stained with anti-CD4 and anti-IFNγ antibodies, which are Th1 cell markers, and expression of IFNγ (CD4 positive) was measured using BD LSRFortessa.

[2] = test system: Monocytes collected from mice; test: LPS-induced M1 macrophage activation (CD80 flow cytometry); assay type: cell-based, mouse; settings: 10 μM compound, 10 μg/mL LPS, 10 days; vs LPS-added group
Procedure: Monocytes collected from mice were cultured in RPMI 1640 medium for 1 day. Then, 10 μM mangiferin 8a and 10 μM norathyriol were added to Monocytes, and after 1 day of culture, 10 μg/mL of LPS was added, followed by 10 days of culture. After 10 days of culture, cells were stained with anti-CD11b and anti-F4/80 antibodies, markers of macrophages, and anti-CD80 antibody, marker of M1 macrophages, and CD80 (CD11b positive and F4/80 positive) expression was measured using BD LSRFortessa.

[3] = test system: IL-6; test: LPS-stimulated IL-6 secretion in macrophages (ELISA); assay type: cell-based, mouse; settings: 10 μM compound, 10 μg/mL LPS 2 days, control 13.13, LPS 321.13
Procedure: Mouse macrophages were used to examine the inhibition of compounds on IL-6 secretion in LPS stimulation.
Mouse macrophages were cultured in RPMI 1640 medium for 1 day. Then, 10 μM mangiferin 8a and 10 μM norathyriol were added to macrophages, and after 1 day of culture, 10 μg/mL of LPS was added to each, followed by 2 days of culture. After these samples were incubated for 2 days, the culture supernatant was collected and IL-6 secretion was measured by enzyme-linked immunosorbent assay (ELISA). The mouse IL-6 ELISA kit (R&D) was used for this measurement.

[4] = test system: B cells collected from mice; test: LPS-induced differentiation into mature B cells (IgM/IgD flow cytometry); assay type: cell-based, mouse; settings: 10 μM compound, 10 μg/mL LPS, 10 days
Procedure: B cells collected from mice were cultured in RPMI 1640 medium for 1 day. Then, 10 μM mangiferin 8a and 10 μM norathyriol were added to B cell, and after 1 day of culture, 10 μg/mL of LPS was added, followed by 10 days of culture. After 10 days of culture, cells were stained with anti-IgM and anti-IgD antibodies, markers of B cells, and the expression of IgM and IgD was measured using BD LSRFortessa. Note that IgM negative and IgD negative indicates pre-B cells, IgM positive and IgD negative indicates immature B cells, and IgM positive and IgD positive indicates mature B cells.

[5] = test system: Th2 cells; test: Th2 cell activation in inflammation-induced mouse model (IL-4 flow cytometry); assay type: in vivo; settings: DBA/1J mice, Freund's complete adjuvant + bovine type2 collagen; oral 10 mg/kg daily 20 days; thymus cells; vs vehicle group
Procedure: as §1, with “anti-IL-4” for “anti-IFNγ”, “Th2” for “Th1”, “IL-4” for “IFNγ”

[6] = target: T1, NIK (Mus musculus, UniProt Q9WUL6); test: LPS-induced NIK activation in B cells (Western blotting, phospho-NIK); assay type: cell-based; settings: 10 μM compound 23 h, then 10 μg/mL LPS 1 h
T1 construct: Proteins were extracted with cell lysate and used as samples; endogenous in cells; host or cells: primary splenic B cells from 6-week-old male Balb/c mice
T1 sequence (Q9WUL6 whole entry): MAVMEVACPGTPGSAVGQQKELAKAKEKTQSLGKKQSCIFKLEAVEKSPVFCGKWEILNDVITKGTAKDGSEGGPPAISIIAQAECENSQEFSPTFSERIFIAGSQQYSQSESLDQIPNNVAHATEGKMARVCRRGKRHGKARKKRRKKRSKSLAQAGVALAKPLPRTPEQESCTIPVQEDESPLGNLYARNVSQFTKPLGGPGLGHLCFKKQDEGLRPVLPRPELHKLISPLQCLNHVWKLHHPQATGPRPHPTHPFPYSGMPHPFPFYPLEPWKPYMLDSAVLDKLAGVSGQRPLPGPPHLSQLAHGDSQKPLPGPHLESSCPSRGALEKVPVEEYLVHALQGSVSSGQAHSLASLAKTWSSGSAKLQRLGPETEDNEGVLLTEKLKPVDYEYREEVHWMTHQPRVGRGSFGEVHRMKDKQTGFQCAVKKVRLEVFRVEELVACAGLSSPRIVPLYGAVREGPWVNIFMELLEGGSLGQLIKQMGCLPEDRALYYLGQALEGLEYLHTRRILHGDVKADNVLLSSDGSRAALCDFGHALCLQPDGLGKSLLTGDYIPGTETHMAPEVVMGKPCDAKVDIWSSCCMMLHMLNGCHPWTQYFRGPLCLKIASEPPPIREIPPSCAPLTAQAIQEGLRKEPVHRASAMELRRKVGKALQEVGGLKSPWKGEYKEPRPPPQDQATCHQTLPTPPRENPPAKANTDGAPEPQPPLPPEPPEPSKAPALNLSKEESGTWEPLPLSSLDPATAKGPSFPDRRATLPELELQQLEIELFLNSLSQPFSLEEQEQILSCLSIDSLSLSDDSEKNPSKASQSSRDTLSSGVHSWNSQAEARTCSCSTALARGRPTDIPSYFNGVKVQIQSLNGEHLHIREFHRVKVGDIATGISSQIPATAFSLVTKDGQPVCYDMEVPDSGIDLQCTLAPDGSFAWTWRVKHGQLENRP
Procedure: (§2) Spleens were harvested from 6-week-old male Balb/c mice and B cells were isolated. After isolation, the cells were seeded in […] dish and cultured in RPMI 1640 medium for 1 day and used as control. In addition, B cells were seeded into 100 mm^2 dish, and after 1 day of culture, 10 μg/mL LPS was added and cultured for 1 h. Furthermore, B cells were seeded in […] dish, and after 1 day of culture, 10 μM mangiferin 8a and 10 μM norathyriol were added to B cells, and after 23 h, 10 μg/mL LPS was added to each, and the cells were incubated for 1 h. All were incubated at 37° C. and 5% CO2.
(§3) Proteins were extracted with cell lysate and used as samples. Each sample was transferred to a PVDF membrane after SDSPAGE and assayed with anti-phospho-NIK, anti-NIK, anti-NF-κB p52, anti-NF-κB p65 and anti-Lamin antibodies.
(§4) The antibody species is indicated in the vertical direction. Specifically, in the case of anti-phospho-NIK antibody (described as “Phospho-NIK”), anti-NIK antibody (described as “NIK”), anti-NF-κB p52 antibody (described as “NF-κB p52 nuclear”), anti-NF-κB p65 antibody (described as “NF-κB p65 nuclear”) and anti-Lamin antibody (described as “Lamin”).

[7] = test system: NF-κB p52; test: LPS-stimulated B cells, nuclear NF-κB p52 (Western blotting); assay type: cell-based, mouse; settings: 10 μM compound; vs 10 μg/mL LPS
Procedure: as §2, §3, §4

[8] = test system: B cells collected from mice; test: LPS-induced differentiation into plasma cells (CD138 flow cytometry); assay type: cell-based, mouse; settings: 10 μM compound, 10 μg/mL LPS, 10 days; vs LPS-added group
Procedure: B cells collected from mice were cultured in RPMI 1640 medium for 1 day. Then, 10 μM mangiferin 8a and 10 μM norathyriol were added to B cell, and after 1 day of culture, 10 μg/mL of LPS was added, followed by 10 days of culture. After 10 days of culture, cells were stained with anti-CD138 antibody, a marker of plasma cells, and CD138 expression was measured using BD LSRFortessa.

[9] = test system: Treg cells; test: Treg cell activation in inflammation-induced mouse model (Foxp3 flow cytometry); assay type: in vivo; settings: DBA/1J mice, Freund's complete adjuvant + bovine type2 collagen; oral 10 mg/kg daily 20 days; thymus cells; vs vehicle group
Procedure: as §1, with “anti-CD4, anti-CD25” for “anti-CD4”, “anti-Foxp3” for “anti-IFNγ”, “Treg” for “Th1”, “Foxp3” for “IFNγ”, “(CD4 positive and CD25” for “(CD4”

## O=c1c2cc(O)c(O)cc2oc2cc(O)cc(O)c12 [norathyriol, 1,3,6,7-tetrahydroxyxanthone]
[1]
  IFNγ expression (CD4 positive): markedly reduced
[2]
  CD80 expression (CD11b positive and F4/80 positive): markedly reduced
[3]
  IL-6 secretion: 64.13 pg/mL
[4]; control 0.239, LPS only 20.7
  population IgM positive and IgD positive (mature B cells): 0.065%
[4]; control 1.91, LPS only 41.8
  population IgM positive and IgD negative (immature B cells): 2.14%
[4]; control 96.7, LPS only 36.6
  population IgM negative and IgD negative (pre-B cells): 97.7%
[5]
  IL-4 expression (CD4 positive): markedly reduced
[6]
  phospho-NIK band (immunoblotting): fainter
[7]
  nuclear NF-κB p52 band (immunoblotting): fainter
[8]
  CD138 expression: significantly decreased CD138 expression
[9]
  Foxp3 expression (CD4 positive and CD25 positive): slightly increased
